Test results from patent US20060216749A1, “Chimeric gaba receptor” (priority 2003, published 2006).

Columns and labels:
[1] = molecular target: hGABABR1a/GABABR2 receptor (CHO membranes) (Homo sapiens, UniProt O75899+Q9UBS5); experiment: GTPγ35S activation assay
Protocol: (§1) Butyrate-stimulated (5 mM final) cells were scraped, after a short rinse with PBS, in 50 mM TrisHCl pH7.4 and centrifuged at 23500 g for 10 min. at 4° C. The pellet was homogenised in 5 mM TrisHCI pH 7.4 by Ultra-Turrax (24000 rpm) followed by centrifugation at 30000 g for 20 min. at 4° C. The resulting pellet was resuspended in 50 mM TrisHCl pH 7.4 and rehomogenised. Protein concentration was determined using the Bradford method.
Filters were rinsed 6 times with cold 10 mM phosphate buffer pH 7.4, and dried overnight before addition of 30 μl Microscint O, and measurement in Topcount (Packard, 1 min./well).

[2] = molecular target: hGABABR1a/R2 heterodimeric GABAB receptor (CHO membranes) (Homo sapiens, UniProt O75899+Q9UBS5); experiment: biochemical
Protocol: as §1
An agonist filter binding assay has been developed in 96-well GF/B filterplate.

[3] = molecular target: GABAB receptor expressed by the hGABABR1a/GABABR2 CHO cell line (Homo sapiens, UniProt O75899+Q9UBS5); conditions: 10 μM in saturation assay, FIGS. 4a, b
Sequence of GABAB receptor expressed by the hGABABR1a/GABABR2 CHO cell line (Q9UBS5 20-961): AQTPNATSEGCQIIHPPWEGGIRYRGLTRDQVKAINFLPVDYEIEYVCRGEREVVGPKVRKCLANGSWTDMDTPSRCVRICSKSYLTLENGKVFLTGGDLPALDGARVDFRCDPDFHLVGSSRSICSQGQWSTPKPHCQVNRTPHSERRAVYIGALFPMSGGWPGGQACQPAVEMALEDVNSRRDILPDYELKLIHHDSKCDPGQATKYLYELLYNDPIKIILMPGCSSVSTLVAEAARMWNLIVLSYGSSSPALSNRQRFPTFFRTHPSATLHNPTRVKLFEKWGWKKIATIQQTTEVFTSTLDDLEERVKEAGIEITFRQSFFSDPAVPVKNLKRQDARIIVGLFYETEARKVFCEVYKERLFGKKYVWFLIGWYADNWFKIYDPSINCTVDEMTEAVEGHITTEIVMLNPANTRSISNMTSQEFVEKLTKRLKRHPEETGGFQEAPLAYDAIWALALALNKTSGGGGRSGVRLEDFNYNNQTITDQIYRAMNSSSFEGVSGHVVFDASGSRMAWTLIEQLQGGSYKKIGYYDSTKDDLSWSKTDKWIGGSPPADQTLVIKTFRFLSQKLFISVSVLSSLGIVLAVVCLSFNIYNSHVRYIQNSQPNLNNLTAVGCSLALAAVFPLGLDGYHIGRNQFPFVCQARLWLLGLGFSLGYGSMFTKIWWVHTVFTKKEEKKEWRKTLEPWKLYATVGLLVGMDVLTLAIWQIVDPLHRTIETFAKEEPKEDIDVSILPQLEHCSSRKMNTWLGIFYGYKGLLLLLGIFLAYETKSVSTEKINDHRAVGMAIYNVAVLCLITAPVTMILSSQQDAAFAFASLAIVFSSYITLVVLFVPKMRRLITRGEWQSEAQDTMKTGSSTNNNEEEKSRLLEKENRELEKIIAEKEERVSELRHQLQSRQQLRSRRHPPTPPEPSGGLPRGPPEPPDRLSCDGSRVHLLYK
Sequence of GABAB receptor expressed by the hGABABR1a/GABABR2 CHO cell line (O75899 42-941): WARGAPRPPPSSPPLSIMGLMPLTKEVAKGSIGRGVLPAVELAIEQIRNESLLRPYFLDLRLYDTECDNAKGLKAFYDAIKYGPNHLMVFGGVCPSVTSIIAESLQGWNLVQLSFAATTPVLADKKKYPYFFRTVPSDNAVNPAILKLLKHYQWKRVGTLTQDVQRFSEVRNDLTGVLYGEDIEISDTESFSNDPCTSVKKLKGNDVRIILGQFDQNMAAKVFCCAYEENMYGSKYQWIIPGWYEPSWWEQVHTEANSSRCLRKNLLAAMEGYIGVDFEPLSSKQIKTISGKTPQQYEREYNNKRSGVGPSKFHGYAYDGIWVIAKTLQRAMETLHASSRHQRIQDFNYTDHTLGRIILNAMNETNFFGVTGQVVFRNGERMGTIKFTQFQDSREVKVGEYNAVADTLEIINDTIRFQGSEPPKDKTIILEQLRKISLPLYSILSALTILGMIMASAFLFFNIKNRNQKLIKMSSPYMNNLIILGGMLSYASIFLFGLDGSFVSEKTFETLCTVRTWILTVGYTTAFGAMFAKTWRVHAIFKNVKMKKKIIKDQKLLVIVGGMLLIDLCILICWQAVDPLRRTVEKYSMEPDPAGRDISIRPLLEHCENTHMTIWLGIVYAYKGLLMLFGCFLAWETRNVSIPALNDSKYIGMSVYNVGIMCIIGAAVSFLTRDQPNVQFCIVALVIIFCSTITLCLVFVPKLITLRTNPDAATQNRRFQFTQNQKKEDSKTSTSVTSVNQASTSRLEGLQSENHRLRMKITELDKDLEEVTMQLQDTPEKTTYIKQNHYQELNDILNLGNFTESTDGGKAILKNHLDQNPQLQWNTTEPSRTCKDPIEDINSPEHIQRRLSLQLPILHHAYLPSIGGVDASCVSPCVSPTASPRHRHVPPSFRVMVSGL
Protocol: Agonist centrifugation Binding AssayIn an alternative binding assay the non-bound ligand was separated from the membranes by centrifugation instead of filtration. The assay was performed according to the earlier described filter binding assay, with the difference that the non-bound ligand was separated from the membranes by centrifugation in a microcentrifuge at 12500 rpm for 10 minutes. The supernatant was discarded, the pellet was rinsed with washing buffer and dissolved in 200 μl water.

[4] = molecular target: T1, native GABAB receptor, Rat (Rattus norvegicus, UniProt Q9Z0U4); conditions: published results; cited from earlier work
T1 construct: host or cells: rat tissue preparations
T1 sequence (Q9Z0U4 20-960): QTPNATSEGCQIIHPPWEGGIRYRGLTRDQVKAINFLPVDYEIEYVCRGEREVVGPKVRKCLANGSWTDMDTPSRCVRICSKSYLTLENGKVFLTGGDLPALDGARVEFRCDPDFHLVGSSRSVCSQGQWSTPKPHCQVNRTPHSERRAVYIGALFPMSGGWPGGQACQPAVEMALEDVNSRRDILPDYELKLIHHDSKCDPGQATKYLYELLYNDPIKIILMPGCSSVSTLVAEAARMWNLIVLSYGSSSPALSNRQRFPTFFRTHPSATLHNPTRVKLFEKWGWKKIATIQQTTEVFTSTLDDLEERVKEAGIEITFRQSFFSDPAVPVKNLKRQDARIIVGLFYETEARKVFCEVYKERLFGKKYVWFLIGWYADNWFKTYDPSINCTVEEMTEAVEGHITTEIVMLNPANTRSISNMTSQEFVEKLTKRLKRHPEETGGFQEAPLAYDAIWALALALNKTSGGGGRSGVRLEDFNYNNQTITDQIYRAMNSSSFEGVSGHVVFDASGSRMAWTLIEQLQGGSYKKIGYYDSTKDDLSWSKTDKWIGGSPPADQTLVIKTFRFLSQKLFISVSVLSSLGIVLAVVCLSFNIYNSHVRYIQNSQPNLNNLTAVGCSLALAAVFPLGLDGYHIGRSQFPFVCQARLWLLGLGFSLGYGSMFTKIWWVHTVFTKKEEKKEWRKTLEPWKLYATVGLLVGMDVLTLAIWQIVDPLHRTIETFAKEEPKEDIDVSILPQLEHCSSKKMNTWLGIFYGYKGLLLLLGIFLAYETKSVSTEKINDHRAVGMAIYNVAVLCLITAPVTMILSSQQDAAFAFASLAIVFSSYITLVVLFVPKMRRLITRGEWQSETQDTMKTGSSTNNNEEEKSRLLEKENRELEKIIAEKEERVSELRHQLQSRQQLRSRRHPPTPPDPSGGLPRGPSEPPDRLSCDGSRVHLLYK
T1 sequence (O88871 41-940 partner): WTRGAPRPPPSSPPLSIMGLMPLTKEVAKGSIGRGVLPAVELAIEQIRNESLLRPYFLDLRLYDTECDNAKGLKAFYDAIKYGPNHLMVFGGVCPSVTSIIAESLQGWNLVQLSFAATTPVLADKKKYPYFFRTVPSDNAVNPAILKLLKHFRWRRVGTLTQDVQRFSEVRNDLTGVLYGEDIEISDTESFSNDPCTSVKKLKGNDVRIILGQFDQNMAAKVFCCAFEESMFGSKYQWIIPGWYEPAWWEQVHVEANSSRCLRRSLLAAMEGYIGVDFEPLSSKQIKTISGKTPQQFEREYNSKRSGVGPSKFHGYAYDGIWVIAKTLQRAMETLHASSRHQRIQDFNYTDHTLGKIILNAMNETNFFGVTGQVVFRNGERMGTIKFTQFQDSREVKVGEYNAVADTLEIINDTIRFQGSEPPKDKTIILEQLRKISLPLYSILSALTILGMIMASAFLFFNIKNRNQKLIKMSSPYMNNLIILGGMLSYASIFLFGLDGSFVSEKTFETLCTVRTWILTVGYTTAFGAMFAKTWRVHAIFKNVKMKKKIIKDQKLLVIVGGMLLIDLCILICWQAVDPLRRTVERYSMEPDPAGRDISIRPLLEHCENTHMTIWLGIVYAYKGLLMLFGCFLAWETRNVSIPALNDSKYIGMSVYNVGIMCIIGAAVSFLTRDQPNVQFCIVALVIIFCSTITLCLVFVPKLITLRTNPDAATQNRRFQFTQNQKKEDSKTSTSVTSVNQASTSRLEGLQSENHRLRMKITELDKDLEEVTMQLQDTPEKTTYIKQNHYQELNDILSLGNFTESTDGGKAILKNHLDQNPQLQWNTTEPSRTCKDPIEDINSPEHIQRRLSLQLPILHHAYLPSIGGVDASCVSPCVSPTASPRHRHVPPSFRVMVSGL

[5] = molecular target: native GABAB receptor, Pig (Sus scrofa, UniProt A0A480I1B8); conditions: Facklam & Bowery, 1993; cited from earlier work
Sequence of native GABAB receptor, Pig (A0A480I1B8 1-960): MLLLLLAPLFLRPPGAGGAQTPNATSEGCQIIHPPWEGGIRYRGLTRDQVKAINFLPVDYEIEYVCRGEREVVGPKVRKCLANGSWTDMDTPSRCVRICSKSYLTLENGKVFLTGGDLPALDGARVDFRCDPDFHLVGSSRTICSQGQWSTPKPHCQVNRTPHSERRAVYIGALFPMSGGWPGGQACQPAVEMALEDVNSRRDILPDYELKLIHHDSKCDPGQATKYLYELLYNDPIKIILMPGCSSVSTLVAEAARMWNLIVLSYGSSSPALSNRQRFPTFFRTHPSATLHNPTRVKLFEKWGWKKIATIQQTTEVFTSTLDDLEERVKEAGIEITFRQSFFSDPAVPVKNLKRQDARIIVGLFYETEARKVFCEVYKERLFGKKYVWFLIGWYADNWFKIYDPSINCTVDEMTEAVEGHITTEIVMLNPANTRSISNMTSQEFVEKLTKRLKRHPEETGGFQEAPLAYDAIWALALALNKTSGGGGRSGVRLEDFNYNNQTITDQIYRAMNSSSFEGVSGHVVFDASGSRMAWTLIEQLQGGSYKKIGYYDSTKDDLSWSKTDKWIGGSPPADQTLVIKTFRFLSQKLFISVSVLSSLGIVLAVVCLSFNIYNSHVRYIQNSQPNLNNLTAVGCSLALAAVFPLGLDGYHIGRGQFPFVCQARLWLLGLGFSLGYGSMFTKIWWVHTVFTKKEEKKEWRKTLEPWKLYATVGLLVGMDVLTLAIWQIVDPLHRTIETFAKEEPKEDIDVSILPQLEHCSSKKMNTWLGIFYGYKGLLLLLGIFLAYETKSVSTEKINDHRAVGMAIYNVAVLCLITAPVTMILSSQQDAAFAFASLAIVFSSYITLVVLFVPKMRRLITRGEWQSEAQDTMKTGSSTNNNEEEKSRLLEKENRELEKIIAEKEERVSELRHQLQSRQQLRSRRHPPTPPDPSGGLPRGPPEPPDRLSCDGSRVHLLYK

Sequence of hGABABR1a/R2 heterodimeric GABAB receptor (CHO membranes) (Q9UBS5 20-961): as the sequence (Q9UBS5 20-961) above
Sequence of hGABABR1a/R2 heterodimeric GABAB receptor (CHO membranes) (O75899 42-941): as the sequence (O75899 42-941) above
Sequence of hGABABR1a/GABABR2 receptor (CHO membranes) (Q9UBS5 20-961): as the sequence (Q9UBS5 20-961) above
Sequence of hGABABR1a/GABABR2 receptor (CHO membranes) (O75899 42-941): as the sequence (O75899 42-941) above

| SMILES | SIGNAL TRANSDUCTION GTPγS binding % Effect at 10 μM [1] [%] | IC50 [2] [nM] | further results |
| --- | --- | --- | --- |
| CC1(C)CC2=Nc3ccccc3SC2=C(NCCCC(=O)O)C1 | 24.44 | 372 | – |
| CN(C)c1ncnc2c1N=C1CC(C)(C)CC(NCCCC(=O)O)=C1S2 [compound 1] | – | – | effect on 3H-GABA binding to both the high and the low affinity site [3]: blocked |
| CC1(C)CC2=Nc3c(Cl)ncnc3SC2=C(NCCCC(=O)O)C1 | 61.93 | 135 | – |
| C[C@H](NC[C@H](O)CP(=O)(O)CC1CCCCC1)c1ccc(Cl)c(Cl)c1 [^3H-CGP54626] | – | – | Kd [4]: 1.5 nM; Kd [5]: 1.35 nM |
| NCCCC(=O)O [^3H-GABA] | – | – | Kd [5]: 26 nM |
| C[C@H](NC[C@H](O)CP(=O)(O)CC1CCCCC1)c1ccc(Cl)c(Cl)c1 [CGP54626, reference compound] | – | – | effect on 3H-GABA binding to both the high and the low affinity site [3]: blocked |
| CC(C)(CO)Cc1cc(C(C)(C)C)c(O)c(C(C)(C)C)c1 [CGP7930, reference compound] | – | – | effect on GABA-stimulated GTPγ35S binding ([1]; positive modulator, FIG. 1): potentiated |

Continued, in another order:

| SIGNAL TRANSDUCTION GTPγS binding % Effect at 10 μM [1] [%] | IC50 [2] [nM] | SMILES | further results |
| --- | --- | --- | --- |
| 45.7275 | 64.9 | CN(C)c1ncnc2c1N=C1CC(C)(C)CC(NCCCC(=O)O)=C1S2 [drawing 15] | – |
| 40.95 | 151 | CC1(C)CC2=Nc3c(N)ncnc3SC2=C(NCCCC(=O)O)C1 | – |
